Columns and labels:
Format in all cases: functional
[1] = species on record: Mus musculus; test: Tested for antagonism of nicotine-induced death (D) in mice
[2] = species on record: Mus musculus; test: Tested for stereotyped gnawing and licking behavior of mice pretreated with apomorphine (AG)
[3] = species on record: Mus musculus; test: Tested for potentiation of yohimbine toxicity in aggregated mice(Y)
[4] = species on record: Mus musculus; test: Tested for antagonism of pentylenetetrazole-induced clonic convulsions (P) in mice
[5] = species on record: Mus musculus; test: Prolongation of hypoxic survival time (HS) in mice
[6] = species on record: Mus musculus; test: Tested for antagonism of oxotremorine hypothermia (OX) in mice
[7] = species on record: Mus musculus; test: Tested for antagonism of bicuculline-induced tonic-extensor convulsions (B) in mice
[8] = species on record: Mus musculus; test: Tested for antagonism of nicotine-induced tonic extensor convulsions (TE) in mice
[9] = species on record: Mus musculus; test: Tested for potentiation of gamma-butyrolactone induced sleep (gamma-B) in mice

Compound | ED50 [1] [mg/kg] | ED50 [2] [mg/kg] | ED50 [3] [mg/kg] | ED50 [4] [mg/kg] | ED50 [5] [mg/kg] | ED50 [6] [mg/kg] | ED50 [7] [mg/kg] | ED50 [8] [mg/kg] | ED50 [9] [mg/kg]
NOCc1nnc2n1-c1ccc(Cl)cc1C(c1ccccc1)=NC2 | 0.08 | 42 | > 50 | 0.2 | 0.7 | 12.5 | 0.2 | 0.1 | 0.84
Clc1ccc2c(c1)C(c1ccccc1)=NCc1nnc(CN3CCN(c4ccccc4)CC3)n1-2 | 159 | > 30 | > 30 | > 30 | > 50 | > 30 | > 30 | 159 | > 30
Clc1ccc2c(c1)C(c1ccccc1)=NCc1nnc(CNC3CC3)n1-2 | 0.28 | > 50 | > 50 | 3.1 | 40 | > 50 | 1.6 | 0.25 | 1.1
CN(C)Cc1nnc2n1-c1ccccc1C(c1ccccc1Cl)=NC2 | – | > 30 | > 30 | 10 | 0.5 | > 30 | 17.8 | 0.13 | > 10
CSc1ccc2c(c1)C(c1ccccc1)=NCc1nnc(CN(C)C)n1-2 | – | > 50 | 40 | 9 | > 50 | 10 | 10 | – | 10
CN(C)CCCN1c2ccccc2CCc2ccccc21 [IMIPRAMINE] | 7 | 0.9 | – | – | > 50 | 1.3 | 21 | 7 | –
CN(C)CCCc1nnc2n1-c1ccc(Cl)cc1C(c1ccccc1Cl)=NC2 | – | > 50 | 25 | 2.2 | 2.2 | 25 | 2.6 | – | 0.2
NCCc1nnc2n1-c1ccccc1C(c1ccccc1Cl)=NC2 | – | > 50 | > 50 | > 50 | 20 | > 50 | > 50 | – | 20
CN(C)CCc1nnc2n1-c1ccccc1C(c1ccccc1)=NC2 | – | 20 | 40 | > 50 | > 50 | 10 | > 50 | – | 30
CCN(CC)Cc1nnc2n1-c1ccc(Cl)cc1C(c1ccccc1)=NC2 | 0.08 | – | – | 3.1 | > 50 | – | 2.6 | 0.08 | 0.6
CC(N)Cc1nnc2n1-c1ccc(Cl)cc1C(c1ccccc1Cl)=NC2 (stereo not given) | – | > 50 | > 50 | 10.5 | 25 | 17.7 | 7.4 | – | 3.7
CC(N)Cc1nnc2n1-c1ccc(Br)cc1C(c1ccccn1)=NC2 (stereo not given) | – | 20 | 7 | > 50 | > 50 | > 50 | > 50 | – | 40
NCCc1nnc2n1-c1ccccc1C(c1ccccc1)=NC2 | – | 30 | 30 | > 50 | > 50 | 40 | > 50 | – | > 50
C[N+](C)([O-])Cc1nnc2n1-c1ccc(Cl)cc1C(c1ccccc1)=NC2 | – | > 50 | > 50 | 0.3 | 5.3 | 5.3 | 0.8 | – | 0.6
CN(C)OCc1nnc2n1-c1ccc(Cl)cc1C(c1ccccc1)=NC2 | – | > 50 | > 50 | 0.2 | > 0.2 | > 50 | 0.2 | – | 0.1
